Experimental data from ChEMBL document CHEMBL3232809, “Synthesis, antibiotic activity and structure-activity relationship study of some 3-enaminetetramic acids” (2014).
Converted amounts (≈) assume the structure as drawn.

system: Streptococcus pneumoniae; assay: Antimicrobial activity against penicillin- and erythromycin-resistant Streptococcus pneumoniae; assay type: functional

SMILES	MIC [µg/mL]
CCCCCCCCCCCCC/C(NCCCN)=C1\C(=O)CN(CCCCCC)C1=O	8 (≈ 17.8 µM)
CCCCCCCCCCCCC/C(NCCCNC(=O)COCC(=O)O)=C1\C(=O)CN(CCCCCC)C1=O	16 (≈ 28.3 µM)
CCCCCCCCCCC/C(Nc1ccc(NC(=O)COCC(=O)O)cc1)=C1\C(=O)CN(CCCCCC)C1=O	2 (≈ 3.5 µM)

system: Streptococcus pneumoniae; assay: Antimicrobial activity against penicillin- and erythromycin-resistant Streptococcus pneumoniae in presence of 2.5% horse blood; assay type: functional

SMILES	MIC [µg/mL]
CCCCCCCCCCCCC/C(NCCCN)=C1\C(=O)CN(CCCCCC)C1=O	32
CCCCCCCCCCCCC/C(NCCCNC(=O)COCC(=O)O)=C1\C(=O)CN(CCCCCC)C1=O	64
CCCCCCCCCCC/C(Nc1ccc(NC(=O)COCC(=O)O)cc1)=C1\C(=O)CN(CCCCCC)C1=O	> 64

system: Staphylococcus aureus; assay: Antimicrobial activity against methicillin-sensitive Staphylococcus aureus ATCC 13709; assay type: functional

SMILES	MIC [µg/mL]
CCCCCCCCCCCCC/C(NCCCN)=C1\C(=O)CN(CCCCCC)C1=O	2 (≈ 4.45 µM)
CCCCCCCCCCCCC/C(NCCCNC(=O)COCC(=O)O)=C1\C(=O)CN(CCCCCC)C1=O	> 64
CCCCCCCCCCC/C(Nc1ccc(NC(=O)COCC(=O)O)cc1)=C1\C(=O)CN(CCCCCC)C1=O	> 64

system: Staphylococcus aureus; assay: Antimicrobial activity against vancomycin-susceptible Staphylococcus aureus ATCC 25923; assay type: functional

SMILES	MIC [µg/mL]
CCCCCCCCCCCCC/C(NCCCN)=C1\C(=O)CN(CCCCCC)C1=O	4 (≈ 8.89 µM)
CCCCCCCCCCCCC/C(NCCCNC(=O)COCC(=O)O)=C1\C(=O)CN(CCCCCC)C1=O	> 64
CCCCCCCCCCC/C(Nc1ccc(NC(=O)COCC(=O)O)cc1)=C1\C(=O)CN(CCCCCC)C1=O	> 64

system: Staphylococcus aureus; assay: Antimicrobial activity against Staphylococcus aureus Oxford; assay type: functional

SMILES	MIC [µg/mL]
CCCCCCCCCCCCC/C(NCCCN)=C1\C(=O)CN(CCCCCC)C1=O	4 (≈ 8.89 µM)
CCCCCCCCCCCCC/C(NCCCNC(=O)COCC(=O)O)=C1\C(=O)CN(CCCCCC)C1=O	> 64
CCCCCCCCCCC/C(Nc1ccc(NC(=O)COCC(=O)O)cc1)=C1\C(=O)CN(CCCCCC)C1=O	> 64

system: Staphylococcus aureus; assay: Antimicrobial activity against methicillin-resistant Staphylococcus aureus; assay type: functional

SMILES	MIC [µg/mL]
CCCCCCCCCCCCC/C(NCCCN)=C1\C(=O)CN(CCCCCC)C1=O	4 (≈ 8.89 µM)
CCCCCCCCCCCCC/C(NCCCNC(=O)COCC(=O)O)=C1\C(=O)CN(CCCCCC)C1=O	> 64
CCCCCCCCCCC/C(Nc1ccc(NC(=O)COCC(=O)O)cc1)=C1\C(=O)CN(CCCCCC)C1=O	> 64

system: Enterococcus faecalis; assay: Antimicrobial activity against vancomycin-susceptible Enterococcus faecalis ATCC 29212; assay type: functional

SMILES	MIC [µg/mL]
CCCCCCCCCCCCC/C(NCCCN)=C1\C(=O)CN(CCCCCC)C1=O	2 (≈ 4.45 µM)
CCCCCCCCCCCCC/C(NCCCNC(=O)COCC(=O)O)=C1\C(=O)CN(CCCCCC)C1=O	16 (≈ 28.3 µM)
CCCCCCCCCCC/C(Nc1ccc(NC(=O)COCC(=O)O)cc1)=C1\C(=O)CN(CCCCCC)C1=O	> 64

system: Enterococcus faecium; assay: Antimicrobial activity against vancomycin-resistant Enterococcus faecium; assay type: functional

SMILES	MIC [µg/mL]
CCCCCCCCCCCCC/C(NCCCN)=C1\C(=O)CN(CCCCCC)C1=O	1 (≈ 2.22 µM)
CCCCCCCCCCCCC/C(NCCCNC(=O)COCC(=O)O)=C1\C(=O)CN(CCCCCC)C1=O	16 (≈ 28.3 µM)
CCCCCCCCCCC/C(Nc1ccc(NC(=O)COCC(=O)O)cc1)=C1\C(=O)CN(CCCCCC)C1=O	> 64

system: Streptococcus pneumoniae; assay: Antimicrobial activity against erythromycin-susceptible Streptococcus pneumoniae ATCC 49619; assay type: functional

SMILES	MIC [µg/mL]
CCCCCCCCCCCCC/C(NCCCN)=C1\C(=O)CN(CCCCCC)C1=O	2 (≈ 4.45 µM)
CCCCCCCCCCCCC/C(NCCCNC(=O)COCC(=O)O)=C1\C(=O)CN(CCCCCC)C1=O	8 (≈ 14.1 µM)
CCCCCCCCCCC/C(Nc1ccc(NC(=O)COCC(=O)O)cc1)=C1\C(=O)CN(CCCCCC)C1=O	2 (≈ 3.5 µM)

system: Haemophilus influenzae; assay: Antimicrobial activity against Haemophilus influenzae ATCC 31517 MMSA; assay type: functional

SMILES	MIC [µg/mL]
CCCCCCCCCCCCC/C(NCCCN)=C1\C(=O)CN(CCCCCC)C1=O	64 (≈ 142 µM)
CCCCCCCCCCCCC/C(NCCCNC(=O)COCC(=O)O)=C1\C(=O)CN(CCCCCC)C1=O	> 64
CCCCCCCCCCC/C(Nc1ccc(NC(=O)COCC(=O)O)cc1)=C1\C(=O)CN(CCCCCC)C1=O	> 64

system: Haemophilus influenzae; assay: Antimicrobial activity against LS2 Efflux knock-out Haemophilus influenzae; assay type: functional

SMILES	MIC [µg/mL]
CCCCCCCCCCCCC/C(NCCCN)=C1\C(=O)CN(CCCCCC)C1=O	32 (≈ 71.2 µM)
CCCCCCCCCCCCC/C(NCCCNC(=O)COCC(=O)O)=C1\C(=O)CN(CCCCCC)C1=O	> 64
CCCCCCCCCCC/C(Nc1ccc(NC(=O)COCC(=O)O)cc1)=C1\C(=O)CN(CCCCCC)C1=O	> 64

system: Escherichia coli; assay: Antimicrobial activity against Escherichia coli ATCC 25922; assay type: functional

SMILES	MIC [µg/mL]
CCCCCCCCCCCCC/C(NCCCN)=C1\C(=O)CN(CCCCCC)C1=O	> 32
CCCCCCCCCCCCC/C(NCCCNC(=O)COCC(=O)O)=C1\C(=O)CN(CCCCCC)C1=O	> 32
CCCCCCCCCCC/C(Nc1ccc(NC(=O)COCC(=O)O)cc1)=C1\C(=O)CN(CCCCCC)C1=O	> 32

system: Escherichia coli; assay: Antimicrobial activity against Escherichia coli 50; assay type: functional

SMILES	MIC [µg/mL]
CCCCCCCCCCCCC/C(NCCCN)=C1\C(=O)CN(CCCCCC)C1=O	> 32
CCCCCCCCCCCCC/C(NCCCNC(=O)COCC(=O)O)=C1\C(=O)CN(CCCCCC)C1=O	> 32
CCCCCCCCCCC/C(Nc1ccc(NC(=O)COCC(=O)O)cc1)=C1\C(=O)CN(CCCCCC)C1=O	> 32

system: Pseudomonas aeruginosa; assay: Antimicrobial activity against Pseudomonas aeruginosa ATCC 27853; assay type: functional

SMILES	MIC [µg/mL]
CCCCCCCCCCCCC/C(NCCCN)=C1\C(=O)CN(CCCCCC)C1=O	> 32
CCCCCCCCCCCCC/C(NCCCNC(=O)COCC(=O)O)=C1\C(=O)CN(CCCCCC)C1=O	> 32
CCCCCCCCCCC/C(Nc1ccc(NC(=O)COCC(=O)O)cc1)=C1\C(=O)CN(CCCCCC)C1=O	> 32

system: Escherichia coli; assay: Antimicrobial activity against Escherichia coli 49; assay type: functional

SMILES	MIC [µg/mL]
CCCCCCCCCCCCC/C(NCCCN)=C1\C(=O)CN(CCCCCC)C1=O	> 32
CCCCCCCCCCCCC/C(NCCCNC(=O)COCC(=O)O)=C1\C(=O)CN(CCCCCC)C1=O	> 32
CCCCCCCCCCC/C(Nc1ccc(NC(=O)COCC(=O)O)cc1)=C1\C(=O)CN(CCCCCC)C1=O	> 32
